# Experimental data published in US20060270709A1 (priority 2005, published 2006).
# Columns and labels:
# [1] = tested on: AMPA-mediated neurodegeneration in CA1 region of organotypic hippocampal slice cultures; test: AMPA toxicity in organotypic hippocampal slice cultures (PI fluorescence in CA1); format: cell-based, Wistar rat
# Experimental: (§1) Organotypic hippocampal slice cultures were prepared using the basic method of Pringle et al, Brain Research, 755:36-46 (1997) modified as follows. Wistar rat pups (8-11 days old) were decapitated and the hippocampus rapidly dissected into ice-cold Gey's balanced salt solution supplemented with 4.5 mg/ml glucose. Transverse sections (400 μm) were cut on a McIlwain tissue chopper and placed back into ice-cold Gey's balanced salt solution. Slices were separated and plated onto Millicell CM culture inserts (4 per well) and maintained at 37° C./5% CO2 for 14 days. […] Medium was changed every 3-4 days.
# (§2) PI fluorescence was detected using a Leica DMIL inverted microscope fitted with a rhodamine filter set. Any cultures in which PI fluorescence was detected at this stage were excluded from further study. […] Neuronal damage was assessed by PI fluorescence imaging 24 hours after the initiation of the neurotoxic insult. Neurotoxicity protocols are outlined below.
# (1) AMPA: Cultures were transferred to fresh SFM (+PI) containing 30 μM S-AMPA for 3 hours under normal culture conditions. At the end of this period, cultures were returned to fresh SFM for 21 hours prior to determination of neuronal death by PI imaging. GYK152466 (30 μM) was used as a positive, neuroprotective control.
# (§3) Neuronal damage was assessed using ImageJ software running on a PC. Images were captured using a monochrome CCD camera and saved for otlline analysis. Light transmission images were captured prior to the addition of drugs, and PI fluorescence images recorded at the end of the 24-hour recovery period. The area of the CA1 region was determined from the transmission image. The area of PI fluorescence in the CA1 was measured using the threshold function on ImageJ, and neuronal damage expressed as the percentage of the CA1 in which PI fluorescence was detected above background. Morrison et al, Br. J. Pharmacol., 137:1255-1268 (2002).
# [2] = tested on: NMDA-induced neurotoxicity in CA1 region of organotypic hippocampal slice cultures; test: NMDA-induced neurotoxicity in organotypic hippocampal slice cultures; format: cell-based, Wistar rat; conditions: 10 μM NMDA 3 hours, NMDA alone 35.1±[…]
# Experimental: as §1, §2
# At the end of this period, cultures were returned to fresh SFM for 21 hours prior to determination of neuronal death by PI imaging.
# (§4) Neuronal damage was assessed using ImageJ software running on a PC. […] Light transmission images were captured prior to the addition of drugs, and PI fluorescence images recorded at the end of the 24-hour recovery period. The area of the CA1 region was determined from the transmission image. […]
# [3] = tested on: OGD-induced neurotoxicity in CA1 region of organotypic hippocampal slice cultures; test: Oxygen-glucose deprivation (OGD) in organotypic hippocampal slice cultures (PI fluorescence in CA1); format: cell-based, Wistar rat
# Experimental: as §1, §2
# (2) Oxygen-Glucose Deprivation (OGD): Experimental ischaemia was performed by exposing cultures to oxygen-glucose deprivation (OGD) as described previously. Pringle et al, Brain Research, 755:36-46 (1997); Pringle et al, Stroke, 27:2124-2130 (1996); Morrison et al, Br. J. Pharmacol., 137:1255-1268 (2002). OGD was induced by transferring cultures to glucose-free SFM (+PI) which had been saturated with 95% N2/5% CO2. Culture plates (without lids) were then sealed into an airtight chamber in which the atmosphere was saturated with 95% N2/5% CO2 by continuously blowing through gas at 10 L/min for ten minutes before being sealed and placed in the incubator for 50 mins (total time of OGD was therefore 60 mins). At the end of the period of OGD cultures were returned to normoxic SFM containing PI and placed back in the incubator for 23 hours.
# as §3
# [4] = tested on: hypoxia-induced neurodegeneration in CA1 region of organotypic hippocampal slice cultures; test: Hypoxia-induced neurodegeneration in organotypic hippocampal slice cultures; format: cell-based, Wistar rat
# Experimental: as §1, §2
# (3) Hypoxia: Hypoxia was performed by exposing cultures to oxygen-deprivation as described previously. Pringle et al, Brain Research, 755:36-46 (1997); Pringle et al, Stroke, 27:2124-2130 (1996). Hypoxia was induced by transferring cultures to SFM (+PI) which had been saturated with 95% N2/5% CO2. Culture plates (without lids) were then sealed into an airtight chamber in which the atmosphere was saturated with 95% N2/5% CO2 by continuously blowing through gas at 10 L/min for ten minutes before being sealed and placed in the incubator for 170 mins (total time of hypoxia was therefore 180 mins). At the end of the period of hypoxia, cultures were returned to normoxic SFM (+PI) and placed back in the incubator for 21 hours. The freeradical scavenger MnTBAP (100 μM) was used as a positive neuroprotective control.
# as §3
# [5] = tested on: dopamine turnover in mice striatum; test: Dopamine, DOPAC and HVA content / dopamine turnover in mice striatum (HPLC-ECD); format: in vivo, C57BL/6 mice; conditions: oral; for dopamine turnover: monotherapy vs combination, mice striatum (FIG. 3)
# Experimental: C57BL/6 mice (SLC, Shizuoka, Japan) were used for the experiment. […] The two drugs were orally administered by gavage 1 hour before sampling. At the time the mice were sacrificed, both striata were rapidly dissected and were frozen by liquid nitrogen. The samples were subsequently sonicated in 0.5 ml of chilled 0.5 M perchloric acid containing 0.1 M EDTA, and centrifuged at 13000 rpm for 15 min at 4° C. Then monoamine levels were measured by HPLC with electrochemical detection. Supernatant aliquots of 20 μl were separated over an Eicompak SC5-ODS column (3×150 mm; Eicom, Japan) with mobile phase of 17% methanol, 83% 0.1M acetate/citrate buffer (pH 3.5) containing 190 mg/ml sodium 1-octanesulfonate and 50 mg/ml EDTA, and a flow rate of 0.65 ml/min. Peaks of dopamine, DOPAC, HVA, 5-HT, and 5-HIAA were quantified by area integration with PowerChrom (eDAQ, Australia), and concentrations were expressed as nanograms per milligram of striatal tissue.
# [6] = tested on: NMDA-induced neural toxicity in cortical neurons; test: NMDA-induced neural toxicity in cortical neurons (LDH release); format: cell-based, rat (Wistar, fetal); conditions: 200 μM NMDA 24 h
# Experimental: The cortical tissues were dissociated to single cells by gentle trituration. […] The cell suspension was centrifuged at 310×g for 3 min and the resulting pellets were resuspended in the medium described above.
# [7] = tested on: duroquinone-induced injury in CA1 region of organotypic hippocampal slice cultures; test: Free radical-mediated toxicity (duroquinone) in organotypic hippocampal slice cultures; format: cell-based, Wistar rat; conditions: 100 μM duroquinone 3 hours, duroquinone alone 51.0±3.4%
# Experimental: as §1
# as §2, with “below. […]” for “below.”
# as §4
# [8] = C57BL/6, mouse, in vivo, po, 1 h
# [9] = 1 hour before sampling (FIG. 2)
structure (smiles),measurement,setting,value
"N#Cc1ccccc1-c1cc(-c2ccccn2)cn(-c2ccccc2)c1=O [2-(2-oxo-1-phenyl-5-pyridin-2-yl-1,2-dihydropyridin-3-yl)benzonitrile]",damage in CA1 (PI fluorescence),"[1]; 0.1 μM, 30 μM AMPA 3 hours, AMPA alone 65.1±1.7%",63.9±2.6%
same,damage in CA1 (PI fluorescence),"[1]; 0.3 μM, 30 μM AMPA 3 hours, AMPA alone 65.1±1.7%",50.4±2.5%
same,"area of PI fluorescence, % of CA1","[1]; 0.5 μM, 30 μM AMPA, AMPA alone 62.4±[…]",33.6±4.0%
same,damage in CA1 (PI fluorescence),"[1]; 3 μM, 30 μM AMPA 3 hours, AMPA alone 65.1±1.7%",0.1±0.1%
same,EC50,"[1]; Rattus norvegicus, 3 h, read-out: EC50 in this model of AMPA toxicity",0.5 µM
same,damage in CA1 (PI fluorescence),[2]; 0.5 μM,29.1±2.9%
same,damage in CA1 (PI fluorescence),"[3]; 0.1 μM, 60 minutes OGD, initial set, OGD alone 50.6±5.2%",64.4±3.6%
same,damage in CA1 (PI fluorescence),"[3]; 0.5 μM, OGD second series, OGD alone 44.8±[…]",55.3±3.1%
same,effect on OGD-induced PI fluorescence,"[3]; any other concentration assessed (up to 3 μM), 60 minutes OGD",no significant effect
same,EC50 in OGD model,"[3]; six-point concentration-response curve, 60 minutes OGD",could not be established
same,damage in CA1 (PI fluorescence),"[4]; 0.1 μM, 3 hours hypoxia, first set, hypoxia alone 45.1±3.5%",24.8±6.3%
same,damage in CA1 (PI fluorescence),"[4]; 0.1 μM, hypoxia, second set, hypoxia alone 36.4±[…]",36.7±4.2%
same,damage in CA1 (PI fluorescence),"[4]; 0.5 μM, hypoxia, repeated experiment, hypoxia alone 36.9+[…]",27.1±3.5%
same,damage in CA1 (PI fluorescence),"[4]; 5 μM, 3 hours hypoxia, first set, hypoxia alone 45.1±3.5%",3.9±1.8%
same,content of HVA in striatum,"[5]; 1 mg/kg, 1 hour before sampling (FIG. 1)",elevated
same,dopamine turnover,[5],modulated dopamine turnover but neither reached significance
same,concentration from which the effect reached a plateau,[6],≥ 0.3 mM
same,neuronal survival (LDH release),[6]; drugs 24 hours before and during exposure (FIG. 5),showed effects
same,damage in CA1 (PI fluorescence),[7]; 0.5 μM,69.1±4.0%
"CC1=NN=C(c2ccc(N)cc2)c2cc3c(cc2C1)OCO3 [GYK152466, reference compound]",damage in CA1 (PI fluorescence),"[1]; 30 μM test substance, 30 μM AMPA 3 hours, AMPA alone 65.1±1.7%",14.3±2.3%
same,damage in CA1 (PI fluorescence),"[1]; 30 μM, pre-incubation time experiments, AMPA alone 46.5±5.0%",21.7±2.7%
same,damage in CA1 (PI fluorescence),"[3]; 30 μM, 60 minutes OGD, initial set, OGD alone 50.6±5.2%",36.9±3.6%
"C[C@]12N[C@H](Cc3ccccc31)c1ccccc12 [MK-801, reference compound]",damage in CA1 (PI fluorescence),[2]; 10 μM,0.0±0.0%
"O=C(O)c1ccc(/C2=C3\C=CC(=N3)/C(c3ccc(C(=O)O)cc3)=c3/cc/c4[n]3[Mn]([Cl])[n]3c2ccc3/C(c2ccc(C(=O)O)cc2)=C2/C=CC(=N2)\C=4c2ccc(C(=O)O)cc2)cc1 [MnTBAP, reference compound]",damage in CA1 (PI fluorescence),"[3]; 100 μM, 60 minutes OGD, initial set, OGD alone 50.6±5.2%",0.1±0.0%
same,damage in CA1 (PI fluorescence),"[3]; 100 μM, OGD second series, OGD alone 44.8±[…]",0.6±0.2%
same,damage in CA1 (PI fluorescence),"[4]; 100 μM, 3 hours hypoxia, first set, hypoxia alone 45.1±3.5%",0.2±0.1%
same,damage in CA1 (PI fluorescence),"[4]; 100 μM, hypoxia, repeated experiment, hypoxia alone 36.9+[…]",0.8±0.4%
same,damage in CA1 (PI fluorescence),"[4]; 100 μM, hypoxia, second set, hypoxia alone 36.4±[…]",0.0±0.0%
same,damage in CA1 (PI fluorescence),[7]; 100 μM,0.1±0.0%
"COc1cc2c(cc1OC)C(=O)C(CC1CCN(Cc3ccccc3)CC1)C2 (stereo not shown) [donepezil, 1-benzyl-4-((5,6-dimethoxy-1-indanon)-2-yl)methylpiperidine]",dose at which peripheral side effect was shown,[8],≥ 7.5 mg/kg
same,dopamine turnover,[5],modulated dopamine turnover but neither reached significance
same,DPAC/DA,[5]; [9],increased significantly
same,HVA/DA,[5]; [9],increased significantly
same,content of dopamine in striatum,[5]; [9],reduced the content of dopamine significantly
